Target: MEK1 (Homo sapiens (Human), UniProt Q02750)
Assay: MEK Inhibition Assay-2 (Z′-LYTE biochemical assay)
Conditions: Z′-LYTE assay of Example 39; read-out: IC50 against MEK1
Experimental: MEK1 inhibitory activity of compounds were tested using the following procedure (protocol available at thermofisher.com/content/dam/LifeTech/migration/files/drug-discovery/pdfs.par.60256.file.dat/20130430%20ssbk %20customer %20protocol %20and %20assa y %20conditions.pdf). The Z′-LYTE biochemical assay (ThermoFisher) employs a fluorescence-based, coupled-enzyme format and is based on the differential sensitivity of phosphorylated and non-phosphorylated peptides to proteolytic cleavage.
Test compounds in 100% DMSO were screened in 1% DMSO (final) in the well. For 10 point titrations, 3-fold serial dilutions are conducted from the starting concentration of 30 μM.
After the 1 hour incubation, 5 μL of a 1:1024 dilution of Development Reagent A (available from Invitrogen, catalog no. PV3295) was added.
ATP solutions were diluted to a 4× working concentration in Kinase Buffer (50 mM HEPES pH 7.5, 0.01% BRIJ-35, 10 mM MgCl2, 1 mM EGTA). ATP Km apparent was previously determined using a Z′-LYTE assay. The Development Reagent was diluted in Development Buffer (available from Invitrogen, catalog no. P3127).
Assay Protocol: 2.5 μL of 4× test compound or 100 nL of 100× Test Compound plus 2.4 μL Kinase Buffer, 5 μL of the 2× Peptide/Kinase Mixture, 2.5 μL of 4×ATP Solution were added to the plates and placed on a shake plate for 30-seconds. The kinase reaction was allowed to proceed for 60-minute at room temperature, before 5 μL of Development Reagent Solution was added, and the mixture agitated for 30-seconds on a shake plate. The mixture was incubated for 60-minute at room temperature. Fluorescence was measured using a plate reader and the data were analyzed.
This control yielded 100% cleaved peptide in the Development Reaction. The 100% Phosphorylation Control, which consisted of a synthetically phosphorylated peptide of the same sequence as the peptide substrate, was designed to allow for the calculation of percent phosphorylation. This control yielded a very low percentage of cleaved peptide in the Development Reaction. The 0% Phosphorylation and 100% Phosphorylation Controls allow for the calculation of the percent phosphorylation achieved in a specific reaction well.
The minimum emission ratio in a screen was established by the 0% Inhibition Control, which contained active kinase. This control was designed to produce a 10-50% phosphorylated peptide in the Kinase Reaction. Cascade assays may produce up to 70% phosphorylated peptide.
A known inhibitor control standard curve, 10 point titration, was run for each individual kinase on the same plate as the kinase to ensure the kinase was inhibited within an expected IC50 range previously determined.
The following controls are prepared for each concentration of Test Compound assayed. […] The expected value for a non-interfering compound should be 100%. Any value outside of 90% to 110% was flagged. […] The expected value for a non-fluorescence compound should be 0%. Any value>20% was flagged.
The data in Table A was calculated. XLfit from IDBS was used. The dose response curve was curve fit to model number 205 (sigmoidal dose-response model).
Table 3 lists the MEK1 inhibition assay results of selected compounds according to the above procedure.

Sequence of MEK1 (Q02750 whole entry): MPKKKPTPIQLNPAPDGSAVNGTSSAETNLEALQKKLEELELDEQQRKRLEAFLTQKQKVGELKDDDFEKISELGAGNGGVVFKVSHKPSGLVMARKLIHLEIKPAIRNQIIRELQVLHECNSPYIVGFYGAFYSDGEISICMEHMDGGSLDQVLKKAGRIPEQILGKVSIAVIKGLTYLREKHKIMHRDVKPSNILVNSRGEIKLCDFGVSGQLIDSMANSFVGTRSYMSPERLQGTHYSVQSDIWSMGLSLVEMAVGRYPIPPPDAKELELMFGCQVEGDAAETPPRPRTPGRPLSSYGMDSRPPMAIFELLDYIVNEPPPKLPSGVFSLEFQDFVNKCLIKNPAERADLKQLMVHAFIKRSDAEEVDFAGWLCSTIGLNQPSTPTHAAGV

Row | IC50 | SMILES
1 | ≤ 150 nM | N#Cc1ccc(C(=O)NOCCO)c(Nc2ccc(I)cc2F)c1F [Compound 1.030, 4-cyano-3-fluoro-2-((2-fluoro-4-iodophenyl)amino)-N-(2-hydroxyethoxy) benzamide]
2 | ≤ 150 nM | N#Cc1ccc(C(=O)NOCC2CC2)c(Nc2ccc(I)cc2F)c1F [Compound 1.031]
3 | ≤ 150 nM | N#Cc1ccc(C(=O)NOCCO)c(Nc2ccc(I)cc2F)c1 [Compound 1.010]

System: not listed separately
Assay: Liver S9 half-life stability assay
Assay type: in vitro ADME
Conditions: human, liver S9 fraction, pH 7.4; 1 μM test compound, 2 mg/mL liver protein, 1 mM NADPH; read-out: Assay 4: liver S9 half-life
Experimental: Compounds can be assessed for metabolic stability in human skin by assessing their rate of disappearance from human S9 skin fraction. Similarly, compounds can be assessed for metabolic stability in human liver by assessing their rate of disappearance from human S9 liver fraction. The protocol below is used to assess the difference between skin and hepatic metabolism.
The assay was carried out in 96-well microtiter plates at 37° C. Reaction mixtures (25 μL) contained a final concentration of 1 μM test compound, 2 mg/mL liver or skin protein, and 1 mM NADPH in buffer (100 mM potassium phosphate, pH 7.4 buffer with 1 mM EDTA, 3 mM MgCl2). At each of the time points (0, 15, 30, and 60 minutes), 150 μL of quench solution (100% acetonitrile with 0.1% formic acid) with internal standard was transferred to each well. Besides the zero minute controls, mixtures containing the same components except the NADPH were also prepared as the negative control. Verapamil or testosterone was included as a positive control to verify assay performance. Plates were sealed and centrifuged at 4° C. for 15 minutes at 4000 rpm. The supernatant was transferred to fresh plates for LC/MS/MS analysis.
All samples were analyzed on LC/MS/MS using an AB Sciex API 4000 instrument, coupled to a Shimadzu LC-20AD LC Pump system. Analytical samples were separated using a Waters Atlantis T3 dC18 reverse phase HPLC column (20 mm×2.1 mm) at a flow rate of 0.5 mL/min. The mobile phase consisted of 0.1% formic acid in water (solvent A) and 0.1% formic acid in 100% acetonitrile (solvent B).
The extent of metabolism was calculated as the disappearance of the test compound, compared to the 0-min control reaction incubations. Initial rates were calculated for the compound concentration and used to determine t1/2 values and subsequently, the intrinsic clearance, CLint=(0.693) (1/t1/2 (min)) (mL incubation/mg of S9 protein).
Assay 4 is the liver S9 half-life stability assay as described in Example 42. A4 indicates a half life of greater than 50 min and less than or equal to 200 min and B4 indicates a half life of less than or equal to 50 minutes.

Row | half-life at 1 μM | SMILES
4 | 50 to 200 min | N#Cc1ccc(C(=O)NOCCO)c(Nc2ccc(I)cc2F)c1F [Compound 1.030, 4-cyano-3-fluoro-2-((2-fluoro-4-iodophenyl)amino)-N-(2-hydroxyethoxy) benzamide]
5 | ≤ 50 min | N#Cc1ccc(C(=O)NOCC2CC2)c(Nc2ccc(I)cc2F)c1F [Compound 1.031]
6 | 50 to 200 min | N#Cc1ccc(C(=O)NOCCO)c(Nc2ccc(I)cc2F)c1 [Compound 1.010]

Source: patent US11572344B2, “Cyanoaryl-aniline compounds for treatment of dermal disorders” (NFlection Therapeutics, Inc., priority 2018, dated 2023)
